Measured values from the PolyMetriX glass transition set.
± gives the standard deviation of the reports.

SMILES | glass transition temperature [°C]
*CC(C)(C)CS(*)(=O)=O (repeat unit) | 108.50
*CC(*)(C)C(=O)OCCOCCOCC1(C)COCCOCCOCCOC1 (repeat unit) | 10.00
*CC(*)(C)C(=O)OCCC(C)(C)C (repeat unit) [Poly(3,3-dimethylbutyl methacrylate)] | 45 ± 1.2
*CCC1C[N+](C)(C)CC1* (repeat unit) | -6.70
*CC(*)C1CCC(C)CC1 (repeat unit) | 132.00
*CC(*)(C)C(=O)OC1CCCCC1 (repeat unit) [Poly(cyclohexyl methacrylate)] | 101.92 ± 20
*CC(*)C(=O)OCCCCCCCCCCOC(=O)c1ccc(OC(=O)c2ccc(C#N)cc2)cc1 (repeat unit) | 15.00
*CC(*)c1ccccc1C(=O)Oc1ccccc1 (repeat unit) | 124.00
*CCCCCCCCCCOC(=O)Nc1ccc(Cc2ccc(NC(=O)O*)cc2)cc1 (repeat unit) | 60.00
*O[Si](*)(C)CCCC (repeat unit) | -115.00
*CCCCCCNC(=O)c1ccc(C2(C)CC(C)(C)c3ccc(C(=O)N*)cc32)cc1 (repeat unit) | 190.00
*CC(*)C(=O)OC(C(F)(F)F)C(F)(F)F (repeat unit) | 42.30
*CCCC(*)(C)C(=O)O (repeat unit) | 132.00
*C(=O)OCCCCCCCCCOC(=O)c1ccc(NC(=O)c2ccc(N3C(=O)c4ccc(*)cc4C3=O)cc2)cc1 (repeat unit) | 100.00
*CCCCCCOC(=O)C(CCCCCBr)C(=O)OCCCCCCOc1ccc(-n2on2-c2ccc(O*)cc2)cc1 (repeat unit) | 7.00
*CC(*)(CC(=O)OC1CCCCCC1)C(=O)OC1CCCCCC1 (repeat unit) | 105.00
*CC(COC(=O)CCCCCCCCCCN1C(=O)C2C3C=CC(C3)C2C1=O)O* (repeat unit) | -31.00
*CC(*)C(=O)N1CCCCC1 (repeat unit) | 108.00
*NNC(=O)c1ccccc1C(=O)Nc1cccc(/C=C2\CCC/C(=C\c3cccc(NC(=O)c4ccccc4C(*)=O)c3)C2=O)c1 (repeat unit) | 195.00
*CC(*)(C)c1ccc(C(O)C(F)(F)F)cc1 (repeat unit) | 199.00
*C(=O)c1ccc(C(=O)c2ccc3c(c2)C(=O)N(c2ccc(C(=O)c4ccc(C(=O)c5ccc(N6C(=O)c7ccc(*)cc7C6=O)cc5)cc4)cc2)C3=O)cc1 (repeat unit) | 260.00

SMILES | glass transition temperature [°C]
*CCCCCCCCCOC(=O)CCC(=O)O* (repeat unit) | 31.00
*OC(=O)OCC(O)C(O)COC(=O)OC1COC2C(*)COC12 (repeat unit) | 78.50
*CC(C)CCC(C)CNC(=O)c1cc(C(=O)N*)cc(C(C)(C)C)c1 (repeat unit) | 149.00
*CCOC(=O)Nc1ccc(Cc2ccc(NC(=O)O*)cc2)cc1 (repeat unit) | 139.00
*CC(*)C(=O)OCCCCCCCCCCCn1c2ccccc2c2ccccc21 (repeat unit) | 15.00
*CC(*)c1ccc(COCCOCC)cc1 (repeat unit) | 0.00
*c1cc(CCOc2ccc(/N=N/c3ccc(C#N)cc3)cc2)c(*)s1 (repeat unit) | 73.00
*CC(*)c1cc(Cl)ccc1Cl (repeat unit) | 108.00
*CC(*)O (repeat unit) [Poly(vinyl alcohol)] | 79.67 ± 32
*CC(=O)Nc1ccc(C2(c3ccc(NC(=O)c4ccc5c(c4)C(=O)N(*)C5=O)cc3)c3ccccc3-c3ccccc32)cc1 (repeat unit) | 345.00
*OC1CCCCC1OC(*)=O (repeat unit) | 117.30
*CC(CC)S* (repeat unit) | -47.00
*CCCCCCCCCCCCN1C(=O)c2ccc(Oc3ccc4c(c3)C(=O)N(*)C4=O)cc2C1=O (repeat unit) | 70.00
*Nc1cc(NC(=O)c2cccc(C(*)=O)c2)cc(-c2nnc(-c3ccccn3)o2)c1 (repeat unit) | 155.00
*CC(=O)Nc1ccc(Cc2ccc(NC(=O)c3ccc4c(c3)C(=O)N(*)C4=O)cc2)cc1 (repeat unit) | 266.00
*CCCCCCOC(=O)OCCCCCOC(=O)OCCCCCCOc1ccc(C(=O)c2ccc(O*)cc2)cc1 (repeat unit) | -0.20
*OC(*)C (repeat unit) | -19.50
*CC(*)C(=O)Oc1cccc(N(C)C)c1 (repeat unit) | 47.00
*Nc1ccc(CC(C)(C)NC(=O)c2ccc(C(*)=O)cc2)cc1 (repeat unit) | 175.00
*Oc1ccccc1C(=O)OC(=O)c1ccccc1OC(=O)CCCCCC(*)=O (repeat unit) | 40.00

Now from value to compound:

glass transition temperature [°C] | SMILES
320.80 | *c1ccc(Oc2ccc3ccc(Oc4ccc(-n5c(=O)c6cc7c(=O)n(*)c(=O)c7cc6c5=O)cc4)cc3c2)cc1 (repeat unit)
300.00 | *c1ccc(Oc2ccc(N3C(=O)c4ccc(Oc5ccc6c(c5)C(=O)N(c5ncc(*)s5)C6=O)cc4C3=O)cc2)cc1 (repeat unit)
248.00 | *Oc1ccc(S(=O)(=O)c2ccc(Oc3c(C)cc(C(c4cc(C)c(*)c(C)c4)(C(F)(F)F)C(F)(F)F)cc3C)cc2)cc1 (repeat unit)
220.00 | *C(=O)c1ccc(Oc2ccc(Oc3ccc(C(=O)c4ccc5c(c4)C(=O)N(c4ccc(Oc6ccc(N7C(=O)c8ccc(*)cc8C7=O)cc6)cc4)C5=O)cc3)cc2)cc1 (repeat unit)
154.00 | *C(=O)c1ccc(C(=O)c2ccc(Oc3ccc(C(C)(C)c4ccc(Oc5ccc(*)s5)cc4)cc3)s2)cc1 (repeat unit)
269.00 | *c1ccc(Nc2ccc(C3(c4ccc(Nc5ccc(S(*)(=O)=O)cc5)c(C)c4)c4ccccc4-c4ccccc43)cc2C)cc1 (repeat unit)
36.00 | *CCCCCCOc1ccc(C(C)(C)c2ccc(O*)cc2)cc1 (repeat unit)
210.00 | *Oc1cccc(NC(=O)c2cc(C(=O)Nc3ccc(*)cc3)cc(C(F)(F)C(F)(F)C(F)(F)C(F)(F)C(F)(F)C(F)(F)C(F)(F)C(F)(F)F)c2)c1 (repeat unit)
247.00 | *Oc1ccc(S(=O)(=O)c2ccc(Oc3ccc(C4(c5ccc(*)cc5)CCCCCC4)cc3)cc2)cc1 (repeat unit)
246.00 | *C(=O)Oc1ccc2ccc(OC(=O)c3ccc4c(c3)C(=O)N(c3ccc(Oc5ccc(N6C(=O)c7ccc(*)cc7C6=O)cc5)cc3)C4=O)cc2c1 (repeat unit)
30.00 | *Oc1ccc(C(=O)OCCOCCOCCOC(=O)c2ccc(OC(=O)c3ccc(C(*)=O)cc3)cc2)cc1 (repeat unit)
256.50 | *C(=O)c1cc(C(=O)c2ccc3c(c2)C(=O)N(c2ccc(Oc4ccc(S(=O)(=O)c5ccc(Oc6ccc(N7C(=O)c8ccc(*)cc8C7=O)cc6)cc5)cc4)cc2)C3=O)cc(-c2ccccc2)c1 (repeat unit)
45.00 | *CC(*)C(=O)OCCOc1ccc(C(=O)Oc2ccc(OC(=O)c3ccc(OCCCC)cc3)cc2)cc1 (repeat unit)
95.00 | *CCCOc1ccc(C(=O)OC(=O)c2ccc(O*)cc2)cc1 (repeat unit)
202.00 | *c1ccc(Sc2ccc(Sc3ccc(Sc4ccc(S(*)(=O)=O)cc4S(=O)(=O)O)cc3)cc2)c(S(=O)(=O)O)c1 (repeat unit)
66.00 | *Oc1ccc(CC(NC(=O)CCc2ccc(OC(=O)CCCC(*)=O)cc2)C(=O)OCc2ccccc2)cc1 (repeat unit)
124.00 | *OC(COC(=O)c1ccc(C)cc1C(*)=O)COc1ccc(/N=N/c2ccc(C#N)cc2)cc1 (repeat unit)
270.00 | *c1ccc(Oc2c(C)cc(-c3cc(C)c(Oc4ccc(N5C(=O)c6ccc(Oc7ccccc7Oc7ccc8c(c7)C(=O)N(*)C8=O)cc6C5=O)cc4C(F)(F)F)c(C)c3)cc2C)c(C(F)(F)F)c1 (repeat unit)
155.00 | *Oc1ccc(C(C)(C)c2ccc(Oc3ccc(C(=O)c4ccc(*)cc4)cc3)cc2)cc1 (repeat unit)
272.00 | *c1c(C)cc(Cc2cc(C)c(N3C(=O)c4ccc(Oc5ccc6ccc(Oc7ccc8c(c7)C(=O)N(*)C8=O)cc6c5)cc4C3=O)c(C)c2)cc1C (repeat unit)
175.00 | *Oc1ccc(C2(c3ccc(OC(*)=O)cc3)CCCCC2)cc1 (repeat unit)
190.00 | *C(=O)c1ccc2c(c1)/C(=N\c1cccc(Oc3cccc(Oc4cccc(/N=C5/OC(=O)c6ccc(*)cc65)c4)c3)c1)OC2=O (repeat unit)
324.00 | *c1ccc2c(c1)C(=O)N(c1cccc(C(=O)Nc3ccc(-c4ccc(NC(=O)c5cccc(N6C(=O)c7ccc(C(*)(C(F)(F)F)C(F)(F)F)cc7C6=O)c5)cc4)cc3)c1)C2=O (repeat unit)
298.00 | *c1ccc(Oc2ccc(N3C(=O)c4cccc(Oc5c(C)cc(-c6cc(C)c(Oc7cccc8c7C(=O)N(*)C8=O)c(C)c6)cc5C)c4C3=O)cc2)cc1 (repeat unit)
200.00 | *c1ccc(Oc2ccc(-c3ccc(Oc4ccc(-c5ncc(*)o5)cc4C(F)(F)F)cc3)cc2)c(C(F)(F)F)c1 (repeat unit)
199.70 | *Oc1ccc(S(=O)(=O)c2ccc(Oc3ccc(C(c4ccc(*)cc4)(C(F)(F)F)C(F)(F)F)cc3)cc2)cc1 (repeat unit)
140.00 | *Oc1ccc(/C=C2\CC/C(=C\c3ccc(OC(=O)c4ccc(/N=C/c5ccc(/C=N/c6ccc(C(*)=O)cc6)cc5)cc4)c(OC)c3)C2=O)cc1OC (repeat unit)
105.50 | *Oc1ccc(OC(=O)c2ccc(OCCCCCCOc3ccc(C(*)=O)cc3)cc2)cc1S(=O)(=O)c1ccccc1 (repeat unit)
107.00 | *Oc1ccc(C(C)c2ccc(OC(*)=S)cc2)cc1 (repeat unit)
